Assay results as given in patent publication US20030083334A1, “Synergistic insecticidal formulations of pyridaben and strobilurins” (priority 2000, published 2003).

Legend:
[1] = system: twospotted spider mites (Tetranychus urticae); assay: Greenhouse trial, dracaena infected with twospotted spider mites; % control; format: in vivo
Experimental: (§1) A greenhouse trial was conducted to determine the insecticidal effects against the cotton aphid (Aphis gossypil). In this regard, cotton plants infected with the cotton aphid were sprayed in a growth chamber and placed in a greenhouse. Counts were made on apterous forms at 6 and 16 days after treatment (DAT), with the data appearing in Tables 1A and 1 B below.
Example 1 was repeated except using dracaena infected with twospotted spider mites (Tetranychus urticae) and using the application rates noted.

[2] = system: green peach aphids (Myzus persicae); assay: Greenhouse trial, celosia infected with green peach aphids; % control; format: in vivo
Experimental: as §1
Example 1 was repeated except using celosia infected with green peach aphids (Myzus persicae) and using the application rates noted.

[3] = system: cotton aphid (Aphis gossypil); assay: Greenhouse trial, cotton plants infected with cotton aphid, sprayed; % control; format: in vivo
Experimental: as §1

[4] = system: cotton aphid; assay: Greenhouse trial, number of apterous aphids (AA) per cotton plant; format: in vivo, Aphis gossypil; settings: for # of AA 6 DAT / # of AA 16 DAT: apterous aphids per plant; for # of AA 6 DAT: untreated 290; for # of AA 16 DAT: untreated 750
Experimental: as §1
Example 1 was repeated and the number of apterous aphids (AA) per plant at 6 and 16 DAT were noted. The data appear in Table 4 below versus a conventional insecticide, imidacloprid (Provado® insecticide commercially available from Bayer Corp.).

Row | SMILES | % Cotton Aphid Control 6 DAT ([3]; 5 ppm) | % Cotton Aphid Control 16 DAT ([3]; 5 ppm) | % Cotton Aphid Control 6 DAT ([3]; 10 ppm) | % Cotton Aphid Control 16 DAT ([3]; 10 ppm) | % Cotton Aphid Control 6 DAT ([3]; 50 ppm) | % Cotton Aphid Control 16 DAT ([3]; 50 ppm) | % Cotton Aphid Control 6 DAT ([3]; 100 ppm) | % Cotton Aphid Control 16 DAT ([3]; 100 ppm) | # of AA 6 DAT ([4]; 5 ppm ai) | # of AA 16 DAT ([4]; 5 ppm ai) | # of AA 6 DAT ([4]; 10 ppm ai) | # of AA 16 DAT ([4]; 10 ppm ai) | # of AA 6 DAT ([4]; 50 ppm ai) | # of AA 16 DAT ([4]; 50 ppm ai) | # of AA 6 DAT ([4]; 100 ppm ai) | # of AA 16 DAT ([4]; 100 ppm ai) | further results
1 | CC(C)(C)c1ccc(CSc2cnn(C(C)(C)C)c(=O)c2Cl)cc1 [BAS 300, 2-tert-butyl-5-(4-tert-butylbenzylthio)-4-chloropyridazin-3(2H)-one] | 73.8% | 68.9% | 75.2% | 70.4% | 94.5% | 98% | 97.6% | 99.1% | 76 | 233 | 72 | 222 | 16 | 15 | 7 | 7 | % Twospotted Spider Mite Control ([1]; 2 oz formulated product/100 gal, 7 DAT): 80%; % Twospotted Spider Mite Control ([1]; 2 oz formulated product/100 gal, 14 DAT): 91%; % Green Peach Aphid Control ([2]; 0.9 lb ai/100 gal, 2 DAT): 0%; % Green Peach Aphid Control ([2]; 0.9 lb ai/100 gal, 4 DAT): 47%; % Green Peach Aphid Control ([2]; 0.9 lb ai/100 gal, 6 DAT): 77%; % Green Peach Aphid Control ([2]; 0.9 lb ai/100 gal, 10 DAT): 97%; % Green Peach Aphid Control ([2]; 0.9 lb ai/100 gal, 14 DAT): 95%; activity against the cotton aphid ([4]; 6 DAT, application rate of 5 ppm ai): moderate activity; # of AA 6 DAT ([4]; 200 ppm ai): 1; # of AA 16 DAT ([4]; 200 ppm ai): 4; # of AA 6 DAT ([4]; 300 ppm ai): 2; # of AA 16 DAT ([4]; 300 ppm ai): 2; intrinsic activity against the cotton aphid ([4]; in vivo): excellent intrinsic activity
2 | CO/N=C(/C(=O)OC)c1ccccc1COc1ccccc1C [BAS 490, methyl-(E)-2-methoxyimino-2-[2-o-tolyoxy-methyl)phenyl] acetate] | 11% | 13.3% | 0% | 14.3% | 0% | 4.4% | 0% | 26.6% | 258 | 650 | 290 | 643 | 298 | 717 | 316 | 550 | % Twospotted Spider Mite Control ([1]; 3.2 oz formulated product/100 gal, 7 DAT): 16%; % Twospotted Spider Mite Control ([1]; 3.2 oz formulated product/100 gal, 14 DAT): 28%; % Green Peach Aphid Control ([2]; 0.1 lb ai/100 gal, 2 DAT): 0%; % Green Peach Aphid Control ([2]; 0.1 lb ai/100 gal, 4 DAT): 14%; % Green Peach Aphid Control ([2]; 0.1 lb ai/100 gal, 6 DAT): 5%; % Green Peach Aphid Control ([2]; 0.1 lb ai/100 gal, 10 DAT): 10%; % Green Peach Aphid Control ([2]; 0.1 lb ai/100 gal, 14 DAT): 5%; effectiveness alone against the cotton aphid ([4]; alone, at all rates): ineffective alone
